Results taken from ChEMBL document CHEMBL5360530, “Structure activity relationship (SAR) and anticancer activity of pyrrolidine derivatives: Recent developments and future prospects (A review)” (Eur J Med Chem, 2023).
pIC50: −log10 of the molar value.

Legend:
[1] = tested on: FaDu; assay: Anticancer activity against human FaDu cells assessed as cell growth inhibition measured after 48 hrs; format: functional, cell-based; conditions: Homo sapiens, FaDu, 48 h
[2] = tested on: HCT-116; assay: Anticancer activity against human HCT-116 cells assessed as cell growth inhibition measured after 48 hrs by MTT assay; format: functional, cell-based; conditions: HCT-116, 48 h
[3] = tested on: HepG2; assay: Anticancer activity against human HepG2 cells assessed as cell growth inhibition measured after 48 hrs by MTT assay; format: functional, cell-based; conditions: HepG2, 48 h
[4] = tested on: PC-3; assay: Anticancer activity against human PC-3 cells assessed as cell growth inhibition measured after 48 hrs by MTT assay; format: functional, cell-based; conditions: PC-3, 48 h
[5] = tested on: MCF7; assay: Anticancer activity against human MCF7 cells assessed as cell growth inhibition at 100 uM by MTT assay relative to control; format: functional
[6] = tested on: A549; assay: Anticancer activity against human A549 cells assessed as cell growth inhibition at 100 uM by MTT assay relative to control; format: functional
[7] = tested on: HepG2; assay: Anticancer activity against human HepG2 cells assessed as cell growth inhibition at 100 uM by MTT assay relative to control; format: functional
[8] = tested on: A-431; assay: Anticancer activity against human A-431 cells assessed as cell growth inhibition at 100 uM by MTT assay relative to control; format: functional
[9] = tested on: MCF7; assay: Anticancer activity against human MCF7 cells assessed as cell growth inhibition measured after 48 hrs by MTT assay; format: functional, cell-based; conditions: MCF7, 48 h
[10] = tested on: A549; assay: Anticancer activity against human A549 cells assessed as cell growth inhibition measured after 48 hrs by MTT assay; format: functional, cell-based; conditions: A549, 48 h

Compound | inhibition at 100 µM [5] [%] | inhibition at 100 µM [6] [%] | inhibition at 100 µM [7] [%] | inhibition at 100 µM [8] [%] | further results
O=C1Nc2ccccc2C12N[C@H](Cc1ccccc1)[C@@H](c1ccc(Br)cc1)[C@@]21CN(/C=C/c2ccccc2)C/C(=C\c2ccc(Br)cc2)C1=O (stereo partly specified) | – | – | – | – | pIC50 [1]: ≤ 4.72
O=C(/C=C/c1cccs1)[C@H]1[C@H](c2cccs2)[C@H]2CSCN2[C@]12C(=O)Nc1ccccc12 | – | – | – | – | pIC50 [2]: 5.80; pIC50 [3]: ≤ 5.82; pIC50 [4]: ≤ 6.10
CCCCCCCCCCCCCCCC(=O)N1CC[C@@H](OP(=O)([O-])OCC[N+](C)(C)C)C1 | 22.6 | 4.7 | 10.1 | 0.3 | –
Cc1ccc(/C=C2\CN(/C=C/c3ccccc3)C[C@]3(C2=O)[C@H](c2ccc(C)cc2)[C@@H](Cc2ccccc2)NC32C(=O)Nc3ccccc32)cc1 (stereo partly specified) | – | – | – | – | pIC50 [1]: ≤ 4.72
Cc1ccc([C@@H]2[C@H]3CSCN3[C@]3(C(=O)Nc4ccccc43)[C@H]2C(=O)/C=C/c2ccccc2)cc1 | – | – | – | – | pIC50 [2]: 5.80; pIC50 [3]: ≤ 5.82; pIC50 [4]: ≤ 6.10
O=C(/C=C/c1ccc2ccccc2c1)[C@H]1[C@H](c2ccc3ccccc3c2)[C@H]2CSCN2[C@]12C(=O)Nc1ccccc12 | – | – | – | – | pIC50 [2]: 5.80; pIC50 [3]: ≤ 5.82; pIC50 [4]: ≤ 6.10
O=C1Nc2ccccc2C12N[C@H](Cc1ccccc1)[C@@H](c1ccc(Cl)cc1Cl)[C@@]21CN(/C=C/c2ccccc2)C/C(=C\c2ccc(Cl)cc2Cl)C1=O (stereo partly specified) | – | – | – | – | pIC50 [1]: 4.66
CCCCCCCC/C=C\CC(=O)N1CCC[C@@H]1COP(=O)([O-])OCC[N+](C)(C)C | 93 | 4.7 | 10.1 | 0.3 | –
CCCCCCCCCCCCCCCCCC/C=C\CCCCCCCC(=O)N1CCC[C@H]1OP(=O)([O-])OCC[N+](C)(C)C | 22.6 | 4.7 | 10.1 | 0.3 | –
Cc1ccc(/C=C/C(=O)[C@H]2[C@H](c3ccc(C)cc3)[C@H]3CSCN3[C@]23C(=O)Nc2ccccc23)cc1 | – | – | – | – | pIC50 [2]: 5.80; pIC50 [3]: ≤ 5.82; pIC50 [4]: ≤ 6.10
COc1ccccc1/C=C1\CN(/C=C/c2ccccc2)C[C@]2(C1=O)[C@H](c1ccccc1OC)[C@@H](Cc1ccccc1)NC21C(=O)Nc2ccccc21 (stereo partly specified) | – | – | – | – | pIC50 [1]: ≤ 4.72
O=C(CN1CCCC1)Nc1cc2ccccc2oc1=O | – | – | – | – | pIC50 [9]: 5.32; pIC50 [10]: 5.74
O=C(/C=C/c1ccc(F)cc1)[C@H]1[C@H](c2ccc(F)cc2)[C@H]2CSCN2[C@]12C(=O)Nc1ccc(Cl)cc12 | – | – | – | – | pIC50 [2]: 5.80; pIC50 [3]: ≤ 5.82; pIC50 [4]: ≤ 6.10
N#C[C@H]1CCCN1CC(=O)Nc1cc2ccccc2oc1=O | – | – | – | – | pIC50 [9]: 5.36; pIC50 [10]: 5.36
CCCCCCCC/C=C\CC(=O)N1CCC[C@H]1COP(=O)([O-])OCC[N+](C)(C)C | 91 | 4.7 | 10.1 | 0.3 | –
CCCCCC/C=C\CCCCCCCC(=O)N1CC[C@H](OP(=O)([O-])OCC[N+](C)(C)C)C1 | 22.6 | 4.7 | 10.1 | 0.3 | –
CCCCCC/C=C\CCCCCCCC(=O)N1CCC[C@H]1OP(=O)([O-])OCC[N+](C)(C)C | 22.6 | 4.7 | 10.1 | 0.3 | –
CCCCCCCCCCCCCCCCCC/C=C\CCCCCCCC(=O)N1CCC[C@@H]1OP(=O)([O-])OCC[N+](C)(C)C | 22.6 | 4.7 | 10.1 | 0.3 | –
CCCCCCCCCCCCCCCCC/C=C\CCCCCCCC(=O)N1CC[C@H](OP(=O)([O-])OCC[N+](C)(C)C)C1 | 22.6 | 4.7 | 10.1 | 0.3 | –
CCCCCCCC/C=C\CC(=O)N1CC[C@H](OP(=O)([O-])OCC[N+](C)(C)C)C1 | 22.6 | 4.7 | 10.1 | 0.3 | –
Cc1cc(=O)oc2cc(NC(=O)[C@@H]3CCCN3S(=O)(=O)c3ccc(Cl)cc3)ccc12 | – | – | – | – | pIC50 [9]: 5.15; pIC50 [10]: 4.56
CCCCCCCCCCCCCCCC(=O)N1CC[C@H](COP(=O)([O-])OCC[N+](C)(C)C)C1 | 74.6 | 71.6 | 57.3 | 74.2 | –
COc1ccc(/C=C/C(=O)[C@H]2[C@H](c3ccc(OC)cc3)[C@H]3CSCN3[C@]23C(=O)Nc2ccccc23)cc1 | – | – | – | – | pIC50 [2]: 5.80; pIC50 [3]: ≤ 5.82; pIC50 [4]: ≤ 6.10
O=C(/C=C/c1ccc(F)cc1)[C@H]1[C@H](c2ccc(F)cc2)[C@H]2CSCN2[C@]12C(=O)Nc1ccccc12 | – | – | – | – | pIC50 [2]: 5.80; pIC50 [3]: ≤ 5.82; pIC50 [4]: ≤ 6.10
CCCCCCCCCCCCCCCCC/C=C\CCCCCCCC(=O)N1CC[C@@H](OP(=O)([O-])OCC[N+](C)(C)C)C1 | 22.6 | 4.7 | 10.1 | 0.3 | –
Cc1cccc(/C=C2\CN(/C=C/c3ccccc3)C[C@]3(C2=O)[C@H](c2cccc(C)c2)[C@@H](Cc2ccccc2)NC32C(=O)Nc3ccccc32)c1 (stereo partly specified) | – | – | – | – | pIC50 [1]: 4.66
